Measured values as given in ChEMBL document CHEMBL1201862, “PubChem BioAssay data set” (2004).
Where “and” joins values, the source holds several entries; their conditions need not be identical. Equal values may be shown once. Calls of active or inactive are those of the source. Cut-off read from the data, not from the text of the source, for most assays here: actives have a measured EC50 and inactives only a lower limit.

Legend:
[1] = target: T1, Heat shock factor protein 1 (Mus musculus, UniProt P38532); test: enhancement of HSF1-driven luciferase signal – cell-based, NIH3T3, luminescence, dose retest, confirmation (AID 435004); assay type: functional;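 note: stress induced by proteasome inhibitor MG132 added 30 min after compound; luciferase reporter driven by HSF1 response element in NIH3T3 cells; actives raise luminescence as potentiators of the MG132 stress response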
T1 sequence (P38532 whole entry): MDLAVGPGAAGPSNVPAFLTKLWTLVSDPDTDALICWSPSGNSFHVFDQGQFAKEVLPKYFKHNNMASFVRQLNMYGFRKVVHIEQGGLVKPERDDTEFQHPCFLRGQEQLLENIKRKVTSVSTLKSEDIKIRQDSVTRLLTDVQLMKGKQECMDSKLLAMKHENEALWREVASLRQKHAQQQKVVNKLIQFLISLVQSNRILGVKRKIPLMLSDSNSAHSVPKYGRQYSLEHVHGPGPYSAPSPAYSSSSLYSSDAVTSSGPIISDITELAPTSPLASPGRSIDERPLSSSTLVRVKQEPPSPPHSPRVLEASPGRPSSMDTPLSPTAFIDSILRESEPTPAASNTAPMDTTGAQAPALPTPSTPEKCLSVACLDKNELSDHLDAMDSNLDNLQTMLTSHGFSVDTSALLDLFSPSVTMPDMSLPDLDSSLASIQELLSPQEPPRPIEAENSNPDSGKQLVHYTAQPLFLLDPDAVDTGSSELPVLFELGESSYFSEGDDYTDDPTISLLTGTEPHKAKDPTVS

[2] = Luminescence Cell-Based Dose Retest to Confirm Inhibitors of Cancer Stem Cells. [Related pubchem assays (depositor defined):AID2717, AID2721]; assay type: functional; settings: Homo sapiens
[3] = Luminescence Cell-Based Dose Response HTS to Identify Inhibitors of 5'UTR Stem-Loop Driven Prion Protein mRNA Translation in H4 Neuroglioblastoma Cells. [Related pubchem assays: 1827 (Project Summary), 1813 (Primary HTS)]; assay type: functional
[4] = luciferase reporter signal suppression in cells – H4 neuroglioma cells, luminescence, dose response (AID 1990); assay type: functional, cell-based
[5] = alpha-synuclein stem-loop luciferase translation blockers – H4 neuroglioma cells, luminescence, confirmation (AID 1988); assay type: functional, cell-based
[6] = target: T2, Cytochrome P450 1A2 (Homo sapiens, UniProt P05177);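 note: PubChem cytochrome P450 panel assay, CYP1A2 panel member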
T2 sequence (P05177 whole entry): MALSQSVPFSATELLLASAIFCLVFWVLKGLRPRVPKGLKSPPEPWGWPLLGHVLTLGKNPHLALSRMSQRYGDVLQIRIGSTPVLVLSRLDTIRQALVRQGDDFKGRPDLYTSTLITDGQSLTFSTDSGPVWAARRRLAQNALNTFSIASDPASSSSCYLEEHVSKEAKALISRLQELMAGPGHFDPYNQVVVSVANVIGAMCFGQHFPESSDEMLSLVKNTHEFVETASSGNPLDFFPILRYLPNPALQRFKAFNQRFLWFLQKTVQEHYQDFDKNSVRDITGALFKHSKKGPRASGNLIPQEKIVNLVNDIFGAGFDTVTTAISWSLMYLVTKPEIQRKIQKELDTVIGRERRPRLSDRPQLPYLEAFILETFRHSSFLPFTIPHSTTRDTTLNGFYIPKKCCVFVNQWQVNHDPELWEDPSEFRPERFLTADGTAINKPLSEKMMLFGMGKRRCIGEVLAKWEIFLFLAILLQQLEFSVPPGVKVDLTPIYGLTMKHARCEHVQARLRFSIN

[7] = target: Cytochrome P450 2D6 (Homo sapiens, UniProt P10635);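 note: CYP2D6 member of a cytochrome P450 panel assay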
Cytochrome P450 2D6, sequence (P10635 whole entry): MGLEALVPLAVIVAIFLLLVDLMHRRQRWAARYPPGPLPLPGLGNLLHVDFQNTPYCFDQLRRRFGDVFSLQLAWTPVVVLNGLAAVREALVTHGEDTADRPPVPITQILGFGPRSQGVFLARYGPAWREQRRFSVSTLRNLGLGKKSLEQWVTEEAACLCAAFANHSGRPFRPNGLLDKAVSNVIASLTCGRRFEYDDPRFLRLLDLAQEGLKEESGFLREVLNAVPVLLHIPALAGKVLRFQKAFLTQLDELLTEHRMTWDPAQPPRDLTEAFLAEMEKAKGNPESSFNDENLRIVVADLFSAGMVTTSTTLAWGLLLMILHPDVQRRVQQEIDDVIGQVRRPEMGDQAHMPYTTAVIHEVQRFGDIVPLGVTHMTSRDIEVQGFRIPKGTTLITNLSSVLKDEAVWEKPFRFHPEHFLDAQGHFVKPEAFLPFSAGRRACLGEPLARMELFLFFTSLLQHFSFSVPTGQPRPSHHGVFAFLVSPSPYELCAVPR

[8] = target: T3, Corticotropin-releasing factor receptor 2/Corticotropin-releasing factor-binding protein (Homo sapiens, UniProt P24387+Q13324); test: activators of CRF receptor 2 with binding protein – uHTS hits, confirmation (AID 602473); assay type: functional; settings: read-out: EC50_Mean
T3 sequence (Q13324 whole entry): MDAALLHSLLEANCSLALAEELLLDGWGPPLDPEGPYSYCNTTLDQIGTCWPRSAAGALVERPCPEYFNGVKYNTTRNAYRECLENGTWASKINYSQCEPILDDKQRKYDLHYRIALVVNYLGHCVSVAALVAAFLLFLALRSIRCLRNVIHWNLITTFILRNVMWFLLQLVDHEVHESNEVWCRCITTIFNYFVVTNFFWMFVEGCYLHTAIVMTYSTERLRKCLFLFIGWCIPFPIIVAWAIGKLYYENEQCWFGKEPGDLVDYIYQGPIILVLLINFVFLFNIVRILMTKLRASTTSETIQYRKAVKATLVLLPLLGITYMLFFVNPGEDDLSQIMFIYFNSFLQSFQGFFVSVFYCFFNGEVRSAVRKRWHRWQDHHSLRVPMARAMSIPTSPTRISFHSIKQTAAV
T3 sequence (P24387 whole entry): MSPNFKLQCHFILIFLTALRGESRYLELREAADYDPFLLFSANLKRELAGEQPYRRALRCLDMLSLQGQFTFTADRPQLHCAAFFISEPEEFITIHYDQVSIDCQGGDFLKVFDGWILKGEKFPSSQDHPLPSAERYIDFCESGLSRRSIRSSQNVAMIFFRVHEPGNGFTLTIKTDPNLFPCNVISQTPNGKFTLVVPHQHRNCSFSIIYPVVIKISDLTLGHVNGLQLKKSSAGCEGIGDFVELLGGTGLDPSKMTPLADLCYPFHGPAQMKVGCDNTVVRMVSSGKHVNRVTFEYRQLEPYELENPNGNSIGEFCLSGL

[9] = viability of uninfected HEp-2 cells – cell-based, HTS, cytotoxicity control for RSV inhibitor project, dose response (AID 2410); assay type: functional; settings: human respiratory syncytial virus
[10] = target: Cytochrome P450 3A4 (Homo sapiens, UniProt P08684);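 note: CYP3A4 tested as one member of a cytochrome P450 panel screen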
Cytochrome P450 3A4, sequence (P08684 whole entry): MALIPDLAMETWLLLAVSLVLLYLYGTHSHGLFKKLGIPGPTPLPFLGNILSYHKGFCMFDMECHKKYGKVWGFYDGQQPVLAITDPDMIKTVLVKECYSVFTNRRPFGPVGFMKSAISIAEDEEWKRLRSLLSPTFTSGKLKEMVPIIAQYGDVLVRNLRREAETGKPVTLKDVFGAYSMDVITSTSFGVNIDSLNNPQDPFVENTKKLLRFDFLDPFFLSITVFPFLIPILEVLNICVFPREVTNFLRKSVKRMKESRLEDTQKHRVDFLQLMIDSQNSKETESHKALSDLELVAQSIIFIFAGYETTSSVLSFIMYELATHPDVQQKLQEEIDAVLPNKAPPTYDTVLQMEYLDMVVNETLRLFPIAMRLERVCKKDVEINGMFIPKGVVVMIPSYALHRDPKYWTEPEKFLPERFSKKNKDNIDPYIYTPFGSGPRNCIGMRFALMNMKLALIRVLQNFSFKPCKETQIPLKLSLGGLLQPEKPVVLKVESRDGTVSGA

[11] = system: Streptococcus; test: GAS UMAA2166 growth inhibition – luminescence, BacTiterGlo, counter-screen for streptokinase expression inhibitor project, dose response (AID 1915); assay type: functional, organism-based;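 note: potency for reduction of bacterial viability or growth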
[12] = system: Streptococcus sp. 'group A'; test: Streptococcus pyogenes SK(-)GAS viability under kanamycin – luminescence, BacTiterGlo, confirmation, counter-screen for streptokinase expression inhibitor project, dose response (AID 1900); assay type: functional, organism-based
[13] = Trypanosoma cruzi growth suppression in host cells – NIH3T3 host cells, beta-gal luminescence, confirmation (AID 2044); assay type: functional, cell-based;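 note: intracellular parasites grown in NIH/3T3 mouse fibroblasts as host cells; luminescent beta-galactosidase reporter signal from transgenic T. cruzi replicating inside host cells; inhibitors lower the luminescence signal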
[14] = NIH3T3 cell viability loss – ATP luminescence, mouse fibroblasts, counter-screen, dose response (AID 2010); assay type: functional, cell-based;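 note: cells exposed to compound for about 90 hours before reading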

For O=[N+]([O-])c1cc([N+](=O)[O-])c(Oc2c(F)cccc2F)cc1NN1CCCCC1, the EC50 [1] was > 260 µM (inactive).

For COC(=O)c1c(NC(=O)/C=C/c2ccc3c(c2)OCO3)sc(C)c1C, the AC50 [2] was 4.17 µM (active).

With ClC(Cl)c1nnc(-c2ccccc2)c(-c2c[nH]c3ccccc23)n1 the EC50 [1] was 81.5 µM (active).

With COc1ccc(C(C[N+](=O)[O-])C2(c3ccc(OC)c(OC)c3)C(=O)c3ccccc3C2=O)cc1 (stereo not drawn) the EC50 [1] was 13.3 µM (active).

In the case of O=[N+]([O-])c1ccc(N/N=C/c2c[nH]c3ccccc23)c(S(=O)(=O)Nc2ccc(Cl)cc2)c1, the AC50 [2] is reported as 1.15 µM (active).

In the case of C/C(N)=C(/C#N)C(=O)CSc1nnc(-c2ccc3c(c2)OCO3)o1, the EC50 [1] is reported as > 260 µM (inactive).

For Cc1cccc(-c2nnc3n2N=C(c2ccccc2)CS3)c1, the EC50 [3] was > 120 µM (not active), the EC50 [4] was > 120 µM (not active) and the EC50 [5] was 12.4 µM (active).

For CC(C)CN(C(=O)c1cccs1)C1CCS(=O)(=O)C1 (stereo not drawn), the EC50 [1] was > 260 µM (inactive).

In the case of COC(=O)[C@@]1(Cc2ccccc2)[C@H]2c3cc(C(=O)N4CCCC4)n(Cc4ccc(O)c(OC)c4)c3C[C@H]2CN1C(=O)c1ccccc1, the AC50 [6] is reported as 25.1 µM (inconclusive) and the AC50 [7] is reported as 20 µM (inconclusive).

For Cc1nc(N2CCC(C)CC2)c2c(C)c(C(=O)Nc3cccc(C(F)(F)F)c3)sc2n1, the EC50 [1] was > 260 µM (inactive).

For COC(=O)[C@@]1(Cc2ccccc2)[C@H]2c3cc(C(=O)N4CCCC4)n(Cc4ccsc4Br)c3C[C@H]2CN1C(=O)c1ccccc1, the AC50 [7] was 12.6 µM (inconclusive).

For CCc1nc2c(c(=O)c3ccccc3n2C)c(=O)n1C1CCCCCC1, the EC50 [8] was 6.21 µM (active) and the CC50 [9] was 20.7 µM (active).

In the case of CCC(C)C1NC(=S)N(C2CCCCC2)C1=O (stereo not drawn), the EC50 [3] is reported as > 120 µM (not active), the EC50 [4] is reported as > 120 µM (not active) and the AC50 [10] is reported as 17.8 µM (inconclusive). The EC50 [5] was > 120 µM (not active).

In the case of C[C@@H](C(=O)Nc1ccc2ccccc2c1)[C@@H]1C[C@@]1(C)[C@@H](NC(=O)OCc1ccccc1)c1ccccc1, the AC50 [7] is reported as 12.6 µM (inconclusive).

For CCOc1ccc(/C=N/NC(=O)COc2ccccc2-c2ccccc2)cc1, the AC50 [2] was 4.37 µM (active).

With O=C(NNC(=O)C12CC3CC(CC(C3)C1)C2)c1ccccc1F the EC50 [3] was > 120 µM (not active), the EC50 [4] was 17.7 µM (active) and the EC50 [5] was 10.2 µM (active).

In the case of CCC(=O)Nc1cccc(C(=O)/C=C/c2ccc(F)cc2)c1, the EC50 [1] is reported as 11.6 µM (active).

In the case of CN(C)/C=C(\C=N\OCc1ccc(Cl)cc1Cl)C(=O)Nc1ccc(Cl)c(Cl)c1, the EC50 [11] is reported as 3.07 µM (active), the EC50 [12] is reported as 0.618 µM (active) and the AC50 [2] is reported as 1.5 µM (active).

With C/C(Cn1cnc([N+](=O)[O-])n1)=N\NC(=O)c1ccccc1F the EC50 [13] was 1.25 µM (active), the EC50 [1] was > 260 µM (inactive) and the EC50 [14] was > 60 µM (not active).

In the case of Cc1nn(C)c(Oc2ccccc2)c1CCNS(=O)(=O)c1ccc(Cl)cc1, the EC50 [1] is reported as > 260 µM (inactive).

For COC(=O)c1ccc(CSc2nnnn2-c2ccc(C)cc2C)o1, the EC50 [1] was > 260 µM (inactive).

With CCCCc1ccc(NC(=O)Nc2cc(C)nn2C)cc1 the AC50 [2] was 3.31 µM (active).

In the case of COC(=O)[C@@]1(Cc2ccc(F)cc2)[C@H]2c3cc(C(=O)N(C)C)n(Cc4ccc(O)c(OC)c4)c3C[C@H]2CN1C(=O)c1ccccc1, the AC50 [6] is reported as 25.1 µM (inconclusive) and the AC50 [7] is reported as 20 µM (inconclusive).

With C/C(NNc1ccccc1)=C1/C(=O)NC(=O)N(Cc2ccccc2)C1=O the AC50 [2] was 1.03 µM (active).

With COc1ccccc1CNc1ccnc(-c2cccc(NS(C)(=O)=O)c2)n1 the AC50 [7] was 39.8 µM (inconclusive).

With COCC(C)OC(=O)C(C#N)c1nc2ccccc2nc1N1CCN(Cc2ccccc2)CC1 (stereo not drawn) the EC50 [3] was > 120 µM (not active), the EC50 [4] was 17.6 µM (active) and the EC50 [5] was 23.7 µM (active).

With O=C(NCCCN1CCOCC1)c1ccc(-n2nc(C(F)(F)F)cc2-c2cccs2)cc1 the EC50 [3] was 34.9 µM (active), the EC50 [4] was 11.6 µM (active) and the EC50 [5] was 16.4 µM (active).

For CCC(C)(C)NC(=O)C(c1ccc(C)cc1)N(Cc1cccs1)C(=O)c1ccc2c(c1)OCCO2 (stereo not drawn), the EC50 [1] was > 260 µM (inactive).

For Cc1oc(CC(C)C)cc1C(=O)Nc1cccc2ccccc12, the AC50 [2] was 5 µM (active).

For COc1ccc(N(CC(=O)N2CCc3ccccc32)S(=O)(=O)c2c(C)noc2C)cc1, the EC50 [1] was 56.1 µM (active).

With COc1ccc(-c2coc3cc4oc(=O)c(CC(=O)O)c(C)c4cc23)cc1 the EC50 [1] was > 260 µM (inactive).

For CCOc1ccccc1-n1c(SCC(=O)Nc2ccc(CC)cc2)nc2nnc(C)c-2c1N, the EC50 [4] was > 60 µM (not active), the EC50 [5] was 9.77 µM (active) and the CC50 [9] was 45.1 µM (active).

In the case of O=C(Nc1ccc2ccccc2c1)c1cn(-c2ccccc2)nc1-c1cccs1, the EC50 [13] is reported as 1.86 µM (active), the EC50 [14] is reported as > 60 µM (not active) and the CC50 [9] is reported as 18.6 µM (active).

In the case of O=C(NCCc1ccccc1)N1c2ccccc2Sc2ccccc21, the EC50 [1] is reported as > 260 µM (inactive).

With O=C(CN1CCN(Cc2ccccc2Cl)C1=O)NCc1ccccn1 the EC50 [3] was > 120 µM (not active), the EC50 [4] was > 120 µM (not active) and the EC50 [5] was > 120 µM (not active).

For COCCNC(=O)/C(C#N)=C/c1ccc(OC(=O)c2cccs2)c(OC)c1, the EC50 [1] was > 260 µM (inactive).

For Cn1ccc2cc3c(cc21)CCN3C(=O)Nc1cccnc1, the AC50 [7] was 31.6 µM (inconclusive) and 20 µM (inconclusive).

In the case of CC(C)NC[C@H]1CCc2cc(CO)c([N+](=O)[O-])cc2N1, the AC50 [6] is reported as 10 µM (inconclusive) and the AC50 [7] is reported as 6.31 µM (inconclusive).

In the case of COc1ccc(C(=O)N2CCC3(CC2)CN(c2ccc(-c4ccccc4)cc2)C3)cc1, the AC50 [7] is reported as 15.8 µM (inconclusive).

With CC(Nc1ccccc1CO)C(=O)Nc1cccc(Cl)c1Cl (stereo not drawn) the EC50 [3] was 0.12 µM (active), the EC50 [4] was 7.64 µM (active) and the EC50 [5] was 12.9 µM (active).

With COc1c(Br)cc([N+](=O)[O-])c(OC)c1C(=O)NC(=O)Nc1cc(Cl)cc(Cl)c1 the EC50 [3] was 17.8 µM (active), the EC50 [4] was > 120 µM (not active) and the EC50 [5] was 15.1 µM (active).

For Cc1ccc(C(c2c(C)nn(-c3ccccc3)c2N)c2c(C)nn(-c3ccccc3)c2N)cc1, the EC50 [1] was > 260 µM (inactive).

In the case of Cc1ccccc1C(=O)N/N=C/c1ccncc1, the AC50 [7] is reported as 22.4 µM (inconclusive).

For O=S(=O)(Nc1nc2ccccc2nc1N1CCN(c2ccccc2F)CC1)c1ccc(Cl)cc1, the AC50 [2] was 4.82 µM (active).
